According to US8263607B2, “1-substituted tetrahydroisoquinoline compound” (Astellas Pharma Inc., priority 2007, dated 2012):

Experiments:
[1] = system: formalin-induced pain behaviors; test: Nociceptive pain model (mouse formalin test); assay type: in vivo, mice (ddY, male); conditions: 100 mg/kg oral, 30 min before formalin; pain behaviors 15 to 25 min after formalin, vs vehicle
Description: A mouse formalin test was carried out by a modification of the method as described in the literature [Murakami et al., Eur. J. Pharmacol. 419: 175-181 (2001)]. When 20 μL of 2.0% formalin was subcutaneously administered to the paw pads of mice (ddY, male, 5 weeks old), pain behaviors (limb withdrawal and licking behaviors) were induced in the treated animal limbs. From 15 to 25 minutes after the administration of formalin, the time taken for the onset of pain behaviors was measured to thereby evaluate the inhibitory action of the test compound on pain behaviors of animals. The test compound was orally given 30 minutes prior to the administration of formalin. […] Inhibition rate(%)=100−(mean onset time of pain behaviors in test compound-treated group)/(mean onset time of pain behaviors in vehicle-treated group)×100

[2] = system: mechanical allodynia in L5/L6 spinal nerve-ligated rats; test: Neuropathic pain model (antiallodynic effects in L5/L6 spinal nerve-ligated rats, von Frey hair test); assay type: in vivo, rats (SD, male); conditions: 30 to 60 min before measurement, response threshold, ipsilateral 0% / contralateral 100% of vehicle group
Description: The antiallodynic effects of the compounds of the present invention were confirmed by assessing the analgesic action in L5/L6 spinal nerve-ligated rats. The assessment was carried out by the method of Kim and Chung (Pain 50, 355-363, 1992) with some modifications.
Under pentobarbital anesthesia, the left L5 and L6 spinal nerves of male SD rats (5-6 weeks old) were tightly ligated with silk thread. For the assessment of analgesic action, the von Frey hair test was adopted. That is, the animal's hind paw pad was pricked with hair and the lowest strength of hair for limb withdrawal response was designated as a response threshold (log gram) to mechanical stimulation. […] On the day before the assessment of the test compound, the response threshold before administration of the test compound was measured. The animals were divided into 4 to 5 groups such that mean value differences of response thresholds between groups before administration of the test compound and within-group variation become small. In the assessment of the test compound, the response threshold after administration of the test compound was measured. The test compound was orally administered 30 to 60 minutes before the measurement of the response threshold. […] Recovery rate(%)={(mean of response threshold in test compound-treated group)−(mean of response threshold of ipsilateral paw in vehicle-treated group)}/{(mean of response threshold of contralateral paw in the vehicle-treated group)−(mean of response threshold of ipsilateral paw in the vehicle-treated group)}×100

[3] = system: CRD-induced abdominal flexion reflex behaviors; test: Abdominal pain model (CRD-induced abdominal pain in rats); assay type: in vivo, rat (Wistar, male); conditions: 10 mg/kg oral, 30 min before distension; abdominal flexion reflex behaviors at internal pressure of 45 mmHg
Description: Improving effects of the compounds of the present invention on digestive tract pain were confirmed by assay of CRD-induced abdominal pain in rats. The rat CRD-induced abdominal pain assay was carried out by a modification of the method described in the literature [Neurogastroenterol. Motil. 15: 363-369 (2003)]. When stimulation of constant internal pressure is applied to the colorectum of an animal by inflation of a 6-cm long balloon inserted into the anus of the rat (Wistar, male, 250-350 g), abdominal flexion reflex behaviors are induced due to abdominal pain. A frequency of reflex behaviors occurring during distension stimulation of 5 minutes was counted to estimate an abdominal pain-inhibitory action of the test compound. The test compound was orally administered 30 minutes before the initiation of distension stimulation. Estimation of the test compound was made by calculating an inhibition rate (%) of abdominal flexion reflex behaviors on the vehicle-treated group.

[4] = system: loperamide-induced bead transit delay; test: Spastic constipation model (loperamide-induced colorectal bead transit delay test in mice); assay type: in vivo, mouse (ddY, male); conditions: 3 mg/kg oral, concurrently with loperamide 0.3 mg/kg s.c.; bead excretion time
Description: A 3-mm diameter glass bead is deeply inserted at a depth of 2 cm into the anus of the mouse (ddY, male, 6 weeks old), and the time taken for excretion of the bead is measured. […] With improving effects on the loperamide-induced bead transit delay, a bowel movement-improving action of the test compound on spastic constipation was evaluated. The test compound was orally administered concurrently with administration of loperamide (30 minutes before the insertion of the bead). The assessment of the test compound was made from calculation of an improvement rate in the bead excretion time of the test compound-treated/loperamide-treated group, by taking the bead excretion time of the non-test compound treated/non-loperamide treated (vehicle-treated/vehicle-treated) group as 100%, and by taking the bead excretion time of the non-test compound treated/loperamide-treated (vehicle-treated/loperamide-treated) group as 0%.

[5] = system: mechanical allodynia in L5/L6 spinal nerve-ligated rats; conditions: known; cited from earlier work

Compound | Inhibition rate [1] [%] | Recovery rate (%) (dose) ([2]; 10 mg/kg oral) | Inhibition rate [3] [%] | Inhibition rate [4] [%] | Recovery rate (%) (dose) ([2]; 30 mg/kg oral) | recovery of mechanical allodynia with treatment of morphine [5]
CCc1ccc2c(c1)[C@H](COC)N(C(=O)CNCC1(O)CCCCC1)CC2 [Example 436] | 55 | 156 | 56 | 59 |  | 
O=C(CNCC1(O)CCCCC1)N1CCc2ccccc2[C@@H]1C1CCCCC1 [Example 1, 1-[({2-[(1S)-1-cyclohexyl-3,4-dihydroisoquinolin-2(1H)-yl]-2-oxoethyl}amino)methyl]cyclohexanol] | 52 |  |  |  | 95 | 
COC[C@@H](O)CNCC(=O)N1CCc2ccccc2[C@@H]1C1CCCCC1 [Example 157] | 52 |  | 59 | 40 | 97 | 
COC[C@@H](O)CNCC(=O)N1CCc2ccccc2[C@@H]1Cc1ccccc1C(F)(F)F [Example 433] | 60 | 80 | 43 | 73 |  | 
COc1cccc2c1[C@H](c1ccccc1)N(C(=O)CNC[C@@H](C)O)CC2 [Example 435] |  |  | 46 | 67 |  | 
COc1cccc2c1[C@H](c1ccccc1)N(C(=O)CNC[C@@H](C)O)CC2 [Example 575] | 77 | 83 |  |  |  | 
COc1ccc2c(c1)CCN(C(=O)CNCC1(O)CCCCC1)[C@H]2C(C)C [Example 415] |  |  | 60 | 88 |  | 
CN1CC[C@]23c4c5ccc(O)c4O[C@H]2[C@@H](O)C=C[C@H]3[C@H]1C5 [morphine] |  |  |  |  |  | only a partial recovery
